Source: ChEMBL document CHEMBL1201862, “PubChem BioAssay data set” (2004)
Several values for one entry are separate records, joined by “and”; a condition that tells them apart may be missing. Identical values can stand only once. Activity calls are given as the source filed them.

How the values were obtained:
[1] = system: Streptococcus sp. 'group A'; assay: Streptococcus pyogenes SK(-)GAS viability under kanamycin – luminescence, BacTiterGlo, confirmation, counter-screen for streptokinase expression inhibitor project, dose response (AID 1900); assay type: functional, organism-based
[2] = system: Streptococcus; assay: GAS UMAA2166 growth inhibition – luminescence, BacTiterGlo, counter-screen for streptokinase expression inhibitor project, dose response (AID 1915); assay type: functional, organism-based;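 also: potency for reduction of bacterial viability or growth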
[3] = target: T1, Streptokinase A (Streptococcus pyogenes serotype M1, UniProt P10520); assay: viability-normalized secreted streptokinase activity reduction – plasminogen activation absorbance, OD405, dose response (AID 1914); assay type: functional, Streptococcus pyogenes M1 GAS;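 also: secreted streptokinase activity via plasminogen activation per viability signal from cell pellet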
T1 sequence (P10520 whole entry): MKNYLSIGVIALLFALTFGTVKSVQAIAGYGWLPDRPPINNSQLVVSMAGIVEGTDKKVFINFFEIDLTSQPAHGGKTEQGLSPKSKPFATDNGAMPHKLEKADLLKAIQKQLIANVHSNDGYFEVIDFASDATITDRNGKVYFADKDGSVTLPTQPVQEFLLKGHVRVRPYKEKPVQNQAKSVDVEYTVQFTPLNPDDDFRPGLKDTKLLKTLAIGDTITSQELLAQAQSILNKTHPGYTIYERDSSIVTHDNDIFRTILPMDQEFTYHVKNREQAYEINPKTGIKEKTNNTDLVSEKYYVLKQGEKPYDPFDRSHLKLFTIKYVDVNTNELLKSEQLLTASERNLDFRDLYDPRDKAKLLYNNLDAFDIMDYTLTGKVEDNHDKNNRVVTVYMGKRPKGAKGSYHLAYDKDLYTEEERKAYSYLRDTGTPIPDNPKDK

[4] = target: Cytochrome P450 3A4 (Homo sapiens, UniProt P08684);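 also: CYP3A4 tested as one member of a cytochrome P450 panel screen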
[5] = target: Cytochrome P450 2C9 (Homo sapiens, UniProt P11712)
[6] = target: T2, Corticotropin-releasing factor receptor 2/Corticotropin-releasing factor-binding protein (Homo sapiens, UniProt P24387+Q13324); assay: activators of CRF receptor 2 with binding protein – uHTS hits, confirmation (AID 602473); assay type: functional; details: read-out: EC50_Mean
T2 sequence (Q13324 whole entry): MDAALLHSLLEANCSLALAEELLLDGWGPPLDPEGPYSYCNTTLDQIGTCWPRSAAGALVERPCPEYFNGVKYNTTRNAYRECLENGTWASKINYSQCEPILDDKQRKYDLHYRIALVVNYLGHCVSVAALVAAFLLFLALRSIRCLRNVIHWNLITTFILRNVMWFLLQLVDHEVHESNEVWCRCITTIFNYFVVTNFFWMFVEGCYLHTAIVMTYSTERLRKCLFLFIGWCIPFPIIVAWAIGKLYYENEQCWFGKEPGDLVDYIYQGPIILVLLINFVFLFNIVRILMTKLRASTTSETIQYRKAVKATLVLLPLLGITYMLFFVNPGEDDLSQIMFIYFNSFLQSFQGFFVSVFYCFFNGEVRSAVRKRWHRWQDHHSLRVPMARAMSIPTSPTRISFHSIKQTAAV
T2 sequence (P24387 whole entry): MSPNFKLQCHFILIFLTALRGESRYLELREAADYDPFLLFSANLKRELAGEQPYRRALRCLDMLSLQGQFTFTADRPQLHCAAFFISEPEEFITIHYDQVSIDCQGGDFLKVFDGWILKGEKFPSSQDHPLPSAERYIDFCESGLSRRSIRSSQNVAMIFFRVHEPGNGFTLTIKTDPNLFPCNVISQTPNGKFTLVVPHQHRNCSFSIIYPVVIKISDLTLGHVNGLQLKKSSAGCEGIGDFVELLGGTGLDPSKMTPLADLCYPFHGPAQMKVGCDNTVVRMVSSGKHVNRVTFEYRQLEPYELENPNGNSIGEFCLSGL

[7] = target: T3, Cytochrome P450 1A2 (Homo sapiens, UniProt P05177);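 also: PubChem cytochrome P450 panel assay, CYP1A2 panel member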
T3 sequence (P05177 whole entry): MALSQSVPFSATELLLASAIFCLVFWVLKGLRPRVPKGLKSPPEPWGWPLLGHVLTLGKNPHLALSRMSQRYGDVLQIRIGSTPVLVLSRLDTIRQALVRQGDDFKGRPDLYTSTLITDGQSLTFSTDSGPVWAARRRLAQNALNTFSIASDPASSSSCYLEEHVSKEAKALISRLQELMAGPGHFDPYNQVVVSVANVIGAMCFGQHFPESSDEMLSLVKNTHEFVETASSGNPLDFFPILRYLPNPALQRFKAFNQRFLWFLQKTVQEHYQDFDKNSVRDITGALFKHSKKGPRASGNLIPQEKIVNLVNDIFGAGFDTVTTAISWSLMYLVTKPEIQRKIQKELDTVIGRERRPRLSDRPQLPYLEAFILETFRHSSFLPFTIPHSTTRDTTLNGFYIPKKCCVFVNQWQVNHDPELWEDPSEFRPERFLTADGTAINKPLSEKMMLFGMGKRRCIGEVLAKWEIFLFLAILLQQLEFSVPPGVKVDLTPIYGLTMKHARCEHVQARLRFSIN

[8] = target: T4, Rac GTPase-activating protein 1 (Homo sapiens, UniProt Q9H0H5); assay: blockers of MgcRacGAP-driven Rac1 GTP hydrolysis – biochemical, ADP Hunter fluorescence, primary and confirmatory, confirmation (AID 624330); assay type: functional
T4 sequence (Q9H0H5 whole entry): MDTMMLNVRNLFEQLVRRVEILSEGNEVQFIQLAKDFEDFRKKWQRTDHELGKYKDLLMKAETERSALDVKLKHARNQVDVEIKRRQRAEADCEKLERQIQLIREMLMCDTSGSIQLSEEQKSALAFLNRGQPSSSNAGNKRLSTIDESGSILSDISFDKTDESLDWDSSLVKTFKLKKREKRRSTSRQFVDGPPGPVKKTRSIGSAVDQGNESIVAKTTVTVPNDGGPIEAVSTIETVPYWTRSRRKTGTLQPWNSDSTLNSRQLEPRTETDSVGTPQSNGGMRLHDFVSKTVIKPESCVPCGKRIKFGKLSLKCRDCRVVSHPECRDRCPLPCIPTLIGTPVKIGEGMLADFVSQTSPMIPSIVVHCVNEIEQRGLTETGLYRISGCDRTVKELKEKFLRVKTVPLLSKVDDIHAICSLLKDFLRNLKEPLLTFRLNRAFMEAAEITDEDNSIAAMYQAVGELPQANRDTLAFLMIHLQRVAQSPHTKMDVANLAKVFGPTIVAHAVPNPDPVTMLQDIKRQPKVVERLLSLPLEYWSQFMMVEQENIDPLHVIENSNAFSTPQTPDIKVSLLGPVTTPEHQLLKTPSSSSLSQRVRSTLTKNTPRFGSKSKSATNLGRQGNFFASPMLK

[9] = NIH3T3 cell viability loss – ATP luminescence, mouse fibroblasts, counter-screen, dose response (AID 2010); assay type: functional, cell-based;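 also: cells exposed to compound for about 90 hours before reading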
[10] = Trypanosoma cruzi growth suppression in host cells – NIH3T3 host cells, beta-gal luminescence, confirmation (AID 2044); assay type: functional, cell-based;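 also: intracellular parasites grown in NIH/3T3 mouse fibroblasts as host cells; luminescent beta-galactosidase reporter signal from transgenic T. cruzi replicating inside host cells; inhibitors lower the luminescence signal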

Cytochrome P450 3A4, sequence (P08684 whole entry): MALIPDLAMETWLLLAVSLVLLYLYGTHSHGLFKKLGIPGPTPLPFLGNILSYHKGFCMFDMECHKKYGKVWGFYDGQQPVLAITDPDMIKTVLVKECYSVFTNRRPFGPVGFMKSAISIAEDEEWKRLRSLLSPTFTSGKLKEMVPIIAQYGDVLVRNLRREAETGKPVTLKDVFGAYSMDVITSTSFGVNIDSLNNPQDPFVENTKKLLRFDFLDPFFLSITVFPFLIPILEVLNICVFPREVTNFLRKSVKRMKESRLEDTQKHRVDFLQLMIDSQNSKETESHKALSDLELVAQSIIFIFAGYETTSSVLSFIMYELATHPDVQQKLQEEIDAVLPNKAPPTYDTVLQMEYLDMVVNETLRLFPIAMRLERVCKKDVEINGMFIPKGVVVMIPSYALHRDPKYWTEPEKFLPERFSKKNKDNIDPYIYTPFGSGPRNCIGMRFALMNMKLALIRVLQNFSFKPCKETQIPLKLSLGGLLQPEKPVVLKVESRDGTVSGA
Cytochrome P450 2C9, sequence (P11712 whole entry): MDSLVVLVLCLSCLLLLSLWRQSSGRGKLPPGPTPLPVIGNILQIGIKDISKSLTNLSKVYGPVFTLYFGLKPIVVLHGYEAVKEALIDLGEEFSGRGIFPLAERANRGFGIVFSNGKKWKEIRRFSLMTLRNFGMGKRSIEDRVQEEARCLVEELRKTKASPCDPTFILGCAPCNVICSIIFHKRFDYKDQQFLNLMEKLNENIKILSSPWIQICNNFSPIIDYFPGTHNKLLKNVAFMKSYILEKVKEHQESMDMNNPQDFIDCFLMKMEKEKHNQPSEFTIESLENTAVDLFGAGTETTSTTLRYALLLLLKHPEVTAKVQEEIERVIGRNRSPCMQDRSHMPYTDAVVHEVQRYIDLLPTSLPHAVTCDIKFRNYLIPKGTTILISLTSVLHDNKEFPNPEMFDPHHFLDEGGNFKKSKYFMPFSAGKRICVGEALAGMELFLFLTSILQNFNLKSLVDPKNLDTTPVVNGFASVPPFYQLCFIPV

## Cc1nc(NS(=O)(=O)c2ccc(Cl)s2)c2c3c(sc2n1)CCCC3
[1]
  EC50: 4.37 µM (active)
[2]
  EC50: 14.9 µM (active)
[3]
  EC50: 21.5 µM (inconclusive)

## CCCCc1ccc(-c2nc(NC(=O)C3C4CCC(O4)C3C(=O)O)sc2C)cc1 (stereo not drawn)
[4]
  AC50: 14.1 µM (inconclusive)
[5]
  AC50: 3.55 µM (inconclusive)

## Oc1nc2cc3c(cc2cc1C(c1nnnn1C1CCCCC1)N1CCSCC1)OCCO3 (stereo not drawn)
[6]
  EC50: > 53 µM (inactive)

## COc1cccc([C@H](O)Cn2cc(-c3cccc(CON=C(C)C)c3)nn2)c1
[4]
  AC50: 3.98 µM (inconclusive)

## C[C@@H](COc1ccccc1)N(CCCl)Cc1ccccc1
[5]
  AC50: 31.6 µM (inconclusive) and 12.6 µM (inconclusive)
[7]
  AC50: 12.6 µM (inconclusive)

## CCOc1ccc(NC(=S)NC(=O)/C=C/c2ccc(OC)c(OC)c2)c([N+](=O)[O-])c1
[5]
  AC50: 14.1 µM (inconclusive)
[7]
  AC50: 15.8 µM (inconclusive)

## c1ccc(-c2nnc3n2NC(c2ccc4c(c2)OCO4)S3)cc1 (stereo not drawn)
[8]
  IC50: 153 µM (active)

## C[C@@H](C(=O)NCc1ccc(S(C)(=O)=O)cc1)[C@@H]1C[C@@]1(C)[C@@H](NC(=O)OCc1ccccc1)c1ccccc1
[7]
  AC50: 15.8 µM (inconclusive)

## CCOc1cc(CNc2ccc(N3CCOCC3)cc2)cc(Br)c1OCC
[8]
  IC50: 19.6 µM (active)

## COc1ccc(NC(=O)Cn2nnc(C(=O)NCc3cccs3)c2N)cc1Cl
[1]
  EC50: 67.2 µM (active)
[2]
  EC50: > 150 µM (not active)
[3]
  EC50: > 150 µM (not active)

## O=C(Nc1ccc(Br)cc1C(=O)O)c1ccc2c(c1)C(=O)N(Cc1ccccc1)C2=O
[1]
  EC50: 0.589 µM (active)
[2]
  EC50: 18.3 µM (active)
[3]
  EC50: 17.5 µM (inconclusive)

## Cn1c(C(=O)N2CCN(c3ccc([N+](=O)[O-])cc3)CC2)cc2c(O)nc3ccccc3c21
[1]
  EC50: 5.33 µM (active)
[2]
  EC50: > 150 µM (not active)
[3]
  EC50: > 150 µM (not active)

## CC(C)CN1CCCC2(CCN(C(=O)c3csnn3)CC2)C1
[4]
  AC50: 31.6 µM (inconclusive)

## COc1cccc(Cn2c(=O)c(CCc3ccccc3)nc3cnc(OC)nc32)c1
[7]
  AC50: 12.6 µM (inconclusive)

## CCCC1(C(=O)OC)C=C2C(=C(C)C(=O)C2C)CN1 (stereo not drawn)
[4]
  AC50: 39.8 µM (inconclusive)

## CCOC(=O)c1c(CN(C)C)n(-c2ccc(C)cc2)c2cc(Br)c(O)cc12
[1]
  EC50: 8.71 µM (active)
[2]
  EC50: > 150 µM (not active)
[3]
  EC50: 21.9 µM (active)

## O=C(CSc1nnc(CNC(=O)c2ccc(F)cc2)o1)NCc1ccccc1Cl
[1]
  EC50: > 150 µM (not active)
[2]
  EC50: > 150 µM (not active)
[3]
  EC50: > 150 µM (not active)

## O=C(c1ccccc1)c1ccc2n1CC[C@H]2C(=O)O
[7]
  AC50: 25.1 µM (inconclusive) and 15.8 µM (inconclusive)

## Cc1sc2ncnc(Nc3ccc(O)cc3)c2c1C
[8]
  IC50: 39.4 µM (active)

## CN(Cc1ccccc1)Cn1ccnc1
[4]
  AC50: 3.98 µM (inconclusive)

## CNC[C@@H](SC)c1ccc(O)c(O)c1
[7]
  AC50: 6.31 µM (inconclusive)

## C/C(=C(/CCO)SSC[C@@H]1CCCO1)N(C=O)Cc1cnc(C)nc1N
[4]
  AC50: 10 µM (inconclusive)

## COc1ccccc1COCC(O)CNCC1(N2CCCCC2)CCCCC1 (stereo not drawn)
[8]
  IC50: 121 µM (active)

## Cc1ccc(CNC(=O)c2cccc3c2C(=O)c2ccc(N4CCCCC4)cc2S3(=O)=O)cc1
[6]
  EC50: 6.87 µM (active)

## COc1cccc(CC2(CO)CCCN(Cc3cc4ccccc4[nH]3)C2)c1 (stereo not drawn)
[9]
  EC50: > 60 µM (not active)
[6]
  EC50: 18.1 µM (active)
[10]
  EC50: 0.834 µM (active)

## O=C(CSCc1ccc(Cl)cc1)Nc1nccs1
[4]
  AC50: 3.55 µM (inconclusive)
[5]
  AC50: 14.1 µM (inconclusive)

## COc1ccc(CNC(=O)c2cnc(C)cn2)cc1
[7]
  AC50: 12.6 µM (inconclusive)

## O=C(c1cccc(Cl)c1)N1CCN(C2CCCCC2)CC1
[8]
  IC50: 300 µM (active)

## O=C(O)c1c2c(nc3ccccc13)/C(=C/c1ccc(O)cc1)CCC2
[8]
  IC50: 46.6 µM (active)

## Cc1ccccc1NC1=C(C(=O)c2ccccc2)N(C)S(=O)(=O)c2ccccc21
[4]
  AC50: 3.16 µM (inconclusive)

## N#Cc1cccc(NC(=O)N2CCCC3(CCN(C(=O)c4ccco4)CC3)C2)c1
[7]
  AC50: 15.8 µM (inconclusive)

## Cc1ccccc1CN1CCCN(Cc2ccc(Cl)cc2)S1(=O)=O
[1]
  EC50: 10.1 µM (active)
[2]
  EC50: > 150 µM (not active)
[3]
  EC50: 23.3 µM (active)

## COc1cc(CN2CCN(c3ccccc3F)CC2)cc(OC)c1O
[8]
  IC50: 143 µM (active)

## CCC(C(=O)NCCCN1CCCC1=O)n1c2ccccc2c2nc(=O)cc(C)n21 (stereo not drawn)
[1]
  EC50: > 150 µM (not active)
[2]
  EC50: > 150 µM (not active)
[3]
  EC50: > 150 µM (not active)

## CCc1ccc(NC(=O)C(C)OC(=O)/C=C/c2ccc(O)c(OC)c2)cc1 (stereo not drawn)
[6]
  EC50: 5.63 µM (active)

## CN(C)c1ccc(/C=C2\Oc3ccc(C#Cc4cccc(N)c4)cc3C2=O)cc1
[6]
  EC50: 5.04 µM (active)

## COc1cc2c(cc1OC)[C@@]13CCN4C=C5CCO[C@H]6CC(=O)N2[C@@H]1[C@@H]6[C@H]5C[C@H]43
[7]
  AC50: 5.01 µM (inconclusive)

## CC(C)(C)OC(=O)N1CCCC1C(=O)NCCc1ccccc1 (stereo not drawn)
[4]
  AC50: 25.1 µM (inconclusive)

## Cc1ccc(Nc2nnc(S)s2)cc1F
[8]
  IC50: 54.5 µM (active)

## COc1ccc(NC(=N)Nc2nc(C)cc(C)n2)cc1
[6]
  EC50: 13.5 µM (active)

## O=[N+]([O-])c1cccc(/C=N/Nc2cc(Cl)nc(-c3ccccc3)n2)c1
[4]
  AC50: 17.8 µM (inconclusive)

## Cc1ccc2c(c1)/C(=N/OC(=O)c1ccc(F)cc1)CCS2
[7]
  AC50: 0.501 µM (inconclusive)

## O=c1c([N+](=O)[O-])cccn1Cc1ccc(F)cc1Cl
[1]
  EC50: 3.27 µM (active)
[2]
  EC50: 7.88 µM (active)
[3]
  EC50: > 150 µM (not active)

## CCOc1ccc2c(c1)C(C)=CC(C)(C)N2 [E324]
[4]
  AC50: 12.6 µM (inconclusive)
